According to ChEMBL document CHEMBL1201862, “PubChem BioAssay data set” (2004):
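Where inhibition never reached the appropriate level, the endpoint shown equals the highest concentration tested. Otherwise, values were interpolated linearly from a five-concentration, 48-hour dose response in 96-well plates. At the GI50, growth is halved.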 Activity calls are given as the source filed them. No stated cut-off is given here; in the data, active = GI50 up to about 1.1 µM and inactive = higher.

Key:
Assay in all cases: growth of human tumour cells (NCI), 48 h
[1] = test system: 786-0
[2] = test system: A498
[3] = test system: A549
[4] = test system: ACHN
[5] = test system: BT-549
[6] = test system: CAKI-1
[7] = test system: CCRF-CEM
[8] = test system: COLO 205
[9] = test system: DU-145
[10] = test system: EKVX
[11] = test system: HCC 2998
[12] = test system: HCT-116
[13] = test system: HCT-15
[14] = test system: HL-60
[15] = test system: HOP-62
[16] = test system: HOP-92
[17] = test system: HT-29
[18] = test system: Hs-578T
[19] = test system: IGROV-1
[20] = test system: K562
[21] = test system: KM12
[22] = test system: LOX IMVI
[23] = test system: M14
[24] = test system: MCF7
[25] = test system: MDA-MB-231
[26] = test system: MDA-MB-435
[27] = test system: MDA-N
[28] = test system: MOLT-4
[29] = test system: Malme-3M
[30] = test system: NCI-H226
[31] = test system: NCI-H23
[32] = test system: NCI-H460
[33] = test system: NCI-H522
[34] = test system: NCI/ADR-RES
[35] = test system: OVCAR-3
[36] = test system: OVCAR-4
[37] = test system: OVCAR-5
[38] = test system: OVCAR-8
[39] = test system: PC-3
[40] = test system: RPMI-8226
[41] = test system: RXF 393
[42] = test system: SF-268
[43] = test system: SF-295
[44] = test system: SF-539
[45] = test system: SK-MEL-28
[46] = test system: SK-MEL-2
[47] = test system: SK-MEL-5
[48] = test system: SK-OV-3
[49] = test system: SN12C
[50] = test system: SNB-19
[51] = test system: SNB-75
[52] = test system: SR
[53] = test system: SW-620
[54] = test system: T47D
[55] = test system: TK-10
[56] = test system: U-251
[57] = test system: UACC-257
[58] = test system: UACC-62
[59] = test system: UO-31

Measured: GI50

NC(=O)NC(=O)c1cccc(NC(=O)CF)c1
inactive: [1] > 100 µM | [2] > 100 µM | [3] > 100 µM | [4] > 100 µM | [5] > 100 µM | [6] > 100 µM | [7] > 100 µM | [8] > 100 µM | [9] > 100 µM | [10] > 100 µM | [11] > 100 µM | [12] > 100 µM | [14] > 100 µM | [15] > 100 µM | [16] > 100 µM | [17] > 100 µM | [18] > 100 µM | [19] > 100 µM | [20] > 100 µM | [21] > 100 µM | [22] > 100 µM | [23] 41.4 µM | [24] > 100 µM | [25] > 100 µM | [26] > 100 µM | [27] > 100 µM | [28] > 100 µM | [29] > 100 µM | [30] 73.5 µM | [31] > 100 µM | [32] > 100 µM | [33] > 100 µM | [34] > 100 µM | [35] > 100 µM | [36] > 100 µM | [37] > 100 µM | [38] > 100 µM | [39] > 100 µM | [40] > 100 µM | [41] > 100 µM | [42] > 100 µM | [43] > 100 µM | [44] > 100 µM | [45] > 100 µM | [46] > 100 µM | [47] > 100 µM | [48] > 100 µM | [49] > 100 µM | [50] > 100 µM | [51] > 100 µM | [52] > 100 µM | [53] > 100 µM | [54] > 100 µM | [55] > 100 µM | [56] > 100 µM | [57] > 100 µM | [58] > 100 µM | [59] 31 µM
> 100 µM: [13]

COc1cccc([C@H]2C/C(=N\NC(=O)C(=O)N[C@@H](C)c3ccccc3)c3ccccc3N2)c1
< 0.01 µM: [13]
active: [1] 0.0374 µM | [2] 0.0417 µM | [4] 0.0381 µM | [6] 0.0354 µM | [7] 0.0188 µM | [8] 0.0167 µM | [9] 0.0258 µM | [10] 0.0927 µM | [11] 0.017 µM | [12] 0.0209 µM | [18] 0.0237 µM | [20] < 0.01 µM | [21] < 0.01 µM | [22] 0.0721 µM | [23] 0.0249 µM | [25] 0.0923 µM | [26] < 0.01 µM | [27] < 0.01 µM | [30] 0.0314 µM | [35] 0.0181 µM | [39] 0.0263 µM | [40] < 0.01 µM | [43] < 0.01 µM | [45] 0.0673 µM | [47] < 0.01 µM | [48] 0.0491 µM | [49] 0.0184 µM | [53] 0.0339 µM | [57] 0.0361 µM | [58] < 0.01 µM | [59] 0.0378 µM
inactive: [3] 6.15 µM | [5] > 10 µM | [14] > 10 µM | [15] 4.51 µM | [16] 7.5 µM | [17] > 10 µM | [19] > 10 µM | [24] 9.38 µM | [28] > 10 µM | [29] > 10 µM | [31] > 10 µM | [32] > 10 µM | [33] 9.42 µM | [34] 7.05 µM | [36] 7.48 µM | [37] 16.8 µM | [38] 6.41 µM | [41] 5.5 µM | [42] 7.05 µM | [44] 7.82 µM | [46] 3.69 µM | [50] 6.52 µM | [51] 8.53 µM | [52] > 10 µM | [54] > 10 µM | [55] > 10 µM | [56] 7.67 µM

COc1ccc(C(C)NNC(=O)c2cc[n+]([BH2-]C#N)cc2)cc1OC (configuration not stated)
> 100 µM: [13]
inactive: [1] > 100 µM | [2] > 100 µM | [3] > 100 µM | [4] > 100 µM | [5] > 100 µM | [6] > 100 µM | [7] > 100 µM | [8] > 100 µM | [9] > 100 µM | [10] > 100 µM | [11] > 100 µM | [12] > 100 µM | [14] > 100 µM | [15] > 100 µM | [16] > 100 µM | [17] > 100 µM | [18] > 100 µM | [19] > 100 µM | [20] > 100 µM | [21] > 100 µM | [22] > 100 µM | [23] > 100 µM | [24] > 100 µM | [25] > 100 µM | [26] > 100 µM | [27] > 100 µM | [28] > 100 µM | [29] > 100 µM | [30] > 100 µM | [31] > 100 µM | [32] > 100 µM | [33] > 100 µM | [34] > 100 µM | [35] > 100 µM | [36] > 100 µM | [37] > 100 µM | [38] > 100 µM | [39] > 100 µM | [40] > 100 µM | [41] > 100 µM | [42] > 100 µM | [43] > 100 µM | [44] > 100 µM | [45] > 100 µM | [46] > 100 µM | [47] > 100 µM | [48] 54.3 µM | [49] > 100 µM | [50] > 100 µM | [51] > 100 µM | [52] > 100 µM | [53] > 100 µM | [54] > 100 µM | [55] > 100 µM | [56] > 100 µM | [57] > 100 µM | [58] > 100 µM | [59] > 100 µM
